Columns and labels:
[1] = target: recombinant human p38α MAP kinase (Homo sapiens, UniProt Q16539); experiment: Study on p38α MAP kinase inhibitory activity (ATF-2 phosphorylation, Alpha Screen); type: biochemical; details: ATF2 substrate, ATP 90 μmol/L
Method: Using activation transcription factor-2 (hereinafter abbreviated as ATF-2) which is a substrate for p38α MAP kinase, the inhibitory action of the compounds of the present invention was investigated on the phosphorylation by a recombinant human p38α MAP kinase.
A kinase buffer (25 mM Tris-HCl (pH 7.5), 5 mM […], 2 mM dithiothreitol, 0.1 mM Na3VO4, 10 mM MgCl2) containing a recombinant human p38α MAP kinase was added to a 384-well plate (5 μL) (6.25 ng protein/well) for fluorescence measurement. After addition of a kinase buffer (5 μL) containing the compound of the present invention, the resulting mixture was incubated at room temperature for 20 minutes. A substrate mixture (5 μL) of biotinylated ATF2 of 5 μg/mL (Upstate Biotechnology #14-432), adenosine triphosphate (90 μmol/L) (Sigma #FL-AAS) and anti-phosphorylated ATF2 antibody (20-fold dilution) (Cell Signaling Technology #9221L) prepared separately was added thereto, and enzyme reaction was carried out at 30° C. for 30 minutes. After the reaction, Hepes buffer (5 μL) containing 0.25% BSA and 100 mM EDTA was added to stop the enzyme reaction. The amount of a complex of the phosphorylated ATF2 and anti-phosphorylated ATF2 antibody produced by the reaction was measured using an Alpha Screenm Rabbit Detection kit (Packard #6760607).
The p38α MAP kinase inhibitory activity, which is the effect of the compound of the present invention, was calculated as an inhibition rate (%) according to the following equation:
(§1) Inhibition rate (%)={(AC−AX)/(AC−AB)}×100
Inhibition rate of compounds with each concentration was calculated, and a value indicating 50% inhibition (IC50) was determined from the inhibition curve.

[2] = tested on: TNF-α production, THP-1 human monocyte cell line; experiment: Inhibitory activity against TNF-α production using human cell lines (LPS-stimulated THP-1); type: cell-based; details: 1.5 h, THP-1 cells, LPS stimulation, 90 minutes
Method: Using THP-1 which is a human monocyte cell line, the inhibitory effect of the compound of the present invention against TNF-α production stimulated by lipopolysaccharide (LPS) was studied.
Each 50 μL of lipopolysaccharide (LPS; Difco #3120-25-0) prepared to a concentration of 40 ng/mL using RPMI-1640 medium containing 10% fetal calf serum (hereinafter abbreviated to RPMI-1640) and RPMI-1640 containing the compound of the present invention was added to a 96-well plate for cell culture. One hundred μL of the cell suspension of THP-1 (Dainippon Pharmaceutical Co., Ltd, #06-202) prepared to a cell density of 2×10^6 cells/mL using RPMI-1640 was added and cultured for 90 minutes at 37° C. in an incubator (5% CO2, 95% air). After completion of the reaction, the culture medium supernatant was recovered and the amount of produced TNF-α was measured using an ELISA kit (Invitrogen, #850090192).
The inhibitory activity against TNF-α production, which is the effect of the compound of the present invention, was calculated as an inhibition rate (%) by the following equation:
as §1
AX is a measured value with LPS induction in the presence of a test compound. Inhibition rate of compounds with each concentration was calculated, and a value indicating 50% inhibition (IC50) was determined from the inhibition curve.

[3] = tested on: TNF-α production induced by lipopolysaccharide (LPS); experiment: Rat cytokine-production model (LPS-induced TNF-α in plasma); type: in vivo; details: dose of 3 mg/kg orally, LPS 10 μg/kg intravenously after 2 hours, plasma 90 minutes after LPS
Method: The in vivo effect of the compound of the present invention was studied on TNF-α production induced by lipopolysaccharide (LPS) in rats.
A vehicle containing the compound of the present invention was orally administered to male Lew […] (Charles River Japan, Inc.), and after 2 hours, lipopolysaccharide (LPS, 055:B5, Difco) was intravenously administered at the dose of 10 μg/kg (5 animals/group). Only a vehicle was orally administered to a control group (5 animals). Ninety minutes after the LPS treatment, heparinized blood collection was performed via the abdominal cava vein under anesthesia with ether, and blood plasma was obtained by centrifugation (12,000 rpm, 3 minutes, 4° C.). The obtained blood plasma sample was stored at −80° C. until it was used. TNF-α in the blood plasma was measured using an ELISA kit from Genzyme/Techne (#10516).
The inhibitory activity of the compound of the present invention against TNF-α production was calculated as an inhibition rate (%) according to the following equation:
Inhibition rate (%)={(AC−AX)/A^C}×100

recombinant human p38α MAP kinase, sequence (Q16539 whole entry): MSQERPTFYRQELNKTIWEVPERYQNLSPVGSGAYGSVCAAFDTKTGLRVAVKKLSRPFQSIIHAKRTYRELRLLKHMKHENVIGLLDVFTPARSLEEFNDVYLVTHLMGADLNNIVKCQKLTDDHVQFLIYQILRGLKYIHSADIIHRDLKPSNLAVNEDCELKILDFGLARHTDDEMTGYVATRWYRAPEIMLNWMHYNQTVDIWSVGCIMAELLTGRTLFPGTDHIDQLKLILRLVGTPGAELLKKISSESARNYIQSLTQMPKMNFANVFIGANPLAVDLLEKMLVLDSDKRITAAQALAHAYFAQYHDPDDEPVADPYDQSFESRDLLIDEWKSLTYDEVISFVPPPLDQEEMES

IC50 [1] | IC50 [2] | SMILES | inhibition against in vivo TNF-α production induced by LPS stimulation [3]
20.5 nM | 7.1 nM | Cc1cc(C)c(-n2cc(C(=NOC3CCN(C)CC3)c3ccc(F)cc3F)ccc2=O)c(C)c1 [Example 52(9), 5-((2,4-difluorophenyl){[(1-methyl-4-piperidinyl)oxy]imino}methyl)-1-mesityl-2(1H)-pyridinone] | 72%
4.9 nM |  | O=c1ccc(C(=NO)c2ccc(F)cc2F)cn1-c1c(Cl)cccc1Cl [Example 7, 1-(2,6-dichlorophenyl)-5-[(2,4-difluorophenyl)(hydroxyimino)methyl]pyridin-2(1H)-one] | 
34 nM | 2.4 nM | Cc1cc(F)cc(C)c1-n1cc(/C(=N/OC2CCN(C)CC2)c2ccc(F)cc2F)ccc1=O [Example 48, 5-((Z)-(2,4-difluorophenyl) {[(1-methyl-4-piperidinyl)oxy]iimino}methyl)-1-(4-fluoro-2,6-dimethylphenyl)-2(1H)-pyridinone] | 72%
